Experimental data reported in patent US7524503B2, “Human cytomegalovirus (HCMV) cytotoxic T cell epitopes, polyepitopes compositions comprising same and diagnostic and prophylactic and therapeutic uses therefor” (priority 2001, dated 2009).

How the values were obtained:
Assay type in all cases: cell-based, human
CD8+ T cells = test: CD4+/CD8+ analysis of 20-mer peptides (intracellular IFN-γ staining or depletion ELISPOT)
Description: (§1) To determine whether a particular 20-mer peptide contained either a CD4^+- or CD8^+-restricted epitope, or both, CD4^+/CD8^+ cell depletion ELISPOT assays were performed on PBMC from healthy virus carriers. For any one experiment, three populations of cells were used: a) CD8^+-depleted PBMC, b) CD4^+-depleted PBMC, and c) non-depleted PBMC. These populations of cells were tested concurrently with the same peptides in a conventional ELISPOT assay as described herein above. DYNABEADS M-450 (Dynal, Oslo, Norway) that bound specifically to CD4^+- or CD8^+ cells were used to perform the depletion essentially according to manufacturers instructions. Beads were washed twice in cold PBS supplemented with 2% FCS using magnetic isolation. The requisite number of cells was resuspended in cold PBS supplemented with 2% FCS, added to the beads and then incubated at 4° C., in the dark, for 30 mins (CD8^+ beads) or 60 mins (CD4^+ beads). Populations were depleted of CD4^+ or CD8^+ cells using magnetic separation. After depletion, the non-attached cells were removed and washed once in growth medium, counted and used in conventional ELISPOT assay. Depleted cells were used at 1.7×10^5 cells per well and the non-depleted population was used at the standard 2.5×10^5 cells per well. After the depletion step, each respective cell population was assessed for the purity of CD4^+ and CD8^+ T cells by three-colour flow cytometry. Samples of depleted cell populations were stained with anti-CD3 antibody directly conjugated to fluorescein isothiocyanate (FITC), anti-CD4 antibody conjugated with phycoerythrin (PE) fluorochrome, and anti-CD8 antibody conjugated with Tricolor fluorochrome (described below). The percent of CD3^+/CD4^+ cells present within the CD8^+-depleted population and the percent of CD3^+/CD8^+ cells present within the CD4^+-depleted populations were assessed on FACSCalibur cytometer (Becton Dickinson). The purity of each population was greater than 90% and the results from the ELISPOT assays are expressed as the percentage of CD4+ or CD8^+ cells within the depleted populations that responded toward each peptide by producing IFN-γ.
(§2) PBMCs were incubated at 37° C. in RPMI+10% FCS with and without 10 μg/ml peptides for 6 hours. Golgiplug™ (Pharmingen, San Diego, Calif., USA) was added to the samples according to manufacturer's instructions during the second hour of incubation and cells activated with 25 ng/ml phorbol 12-myristidate 13-acetate (PMA; Sigma-Aldrich Co, St. Louis Mo.) and 1 μg/ml iomomycin (Sigma) acted as a positive control. Following the incubation, 1×10^6 cells/sample were washed and resuspended in staining buffer consisting of PBS with GolgiPlug™, 3% FCS and sodium azide. Cells were then stained with FITC conjugated anti-CD3-FITC (UCHT1, Immunotech, Marseille, France), and either Tricolor (TRI) conjugated anti-CD4 (S3.5, Caltag, Burlingame, Calif.) or anti-CD8 (3B5, Caltag) for 30 minutes, 4° C. in the dark. The cells were fixed for 20 min at 4° C. with Cytofix/Cytoperm™ (BD Biosciences) and resuspended in Perm/Wash™ permeabilization buffer (BD Biosciences) according to manufacturers protocol. Fixed cells were stained with phycoerythrin (PE) conjugated anti-human IFN-γ (B27, Pharmingen) for 30 min at 4° C. in the dark. As a negative control, cells were stained with appropriate isotype matched control antibodies. Cells were washed twice in permeabilization buffer and resuspended in staining buffer before analysis by three-colour flow cytometry on a FACSCalibur cytometer (BD Biosciences). All data analysis was carried out using FlowJo software (Tree Star, Inc. San Carlos, CA).
(§3) When using 20-mer peptides to map epitopes by ELISPOT, it is possible that some responses may be MHC class-II restricted, and not necessarily restricted through HLA class I alleles. It was evident throughout this study that some epitopes identified using ELISPOT could not be confirmed using cytotoxicity analysis. […]

CD4+ T cells = test: as above
Description: as §1, §2, §3

[1] = tested on: PBMC from healthy HCMV seropositive donors; test: IFN-γ ELISPOT assay; details: peptide 10 μg/ml
Description: ELISPOT assay was used to assess whether stimulation of PBMC from a large panel of seropositive donors with HCMV peptides could induce IFN-γ expression in T cells. Briefly, a 96-well nitrocellulose plate (Multiscreen, Millipore) was coated overnight at 4° C. with mouse monoclonal antibody anti-IFN-γ IgG1 (10 μg/ml; Mabtech Nacka, Sweden). The plate was then washed six times in Phosphate Buffered Saline (PBS) and blocked for 1 hour at 37° C. with PBS supplemented with 5% FCS. The blocking solution was removed and PBMC from healthy HCMV seropositive donors were added at a concentration of 2.5×10^5 cells per well in growth medium. These cells were incubated for 18 h at 37° C. in a 5% CO2 atmosphere in the presence of synthetic peptides from HCMV antigens (10 μg/ml). After incubation, the plate was washed three times with PBS supplemented with 0.05% Tween, followed by three washes with PBS alone. Biotinylated anti-IFN-γ (Mabtech, Nacka Sweden) detection antibody was added to each well at a final concentration of 1 μg/ml in PBS. The plates were incubated at room temperature in the dark for 4 h and then washed, as described above. Streptavidin-Alkaline phosphatase (Sigma) was added to each well at a final concentration of 1 μg/ml in PBS and incubated at room temperature in the dark for 2 h. After a final wash with PBS, the substrate, 5-bromo-4-chloro-3-indolyl phosphate and nitro blue tetrazolium, was added to each well and the plates incubated for 30 min at RT. Cells that produced IFN-γ in response to the presence of peptide were detected as purple spots on the nitrocellulose membrane of each well. The spots were counted automatically using a closed-circuit camera (CCD) and ImagePro image analysis software or automated ELISPOT reader (AID, Germany). The T cell precursor frequency for each peptide was based on the total number of PBMC in the well and the number of peptide-specific spots per well, over an average of 3 wells. The number of peptide-specific spots was also calculated by subtracting the negative control values, which consisted of PBMC without peptide (an average of 3 wells), from the test wells.
To determine whether memory CTL responses against the predictive HCMV potential epitopes could be detected in healthy seropositive virus carriers, we used the ELISPOT assay, which allows rapid identification of CTL epitopes without prolonged in vitro culture.
We tested epitopes that were restricted for HLA A1, A3, A24, A26, B7, B8, B27, B35 and B44 in ELISPOT assays, to determine whether memory T cell responses could be detected in healthy HLA-matched virus carriers. PBMC from a cohort of healthy virus carriers (Table 2) were stimulated with individual peptides and the cells that produced IFN-γ were detected. CTL epitopes that were restricted through either HLA A1, A3, A24, A26, B7, B8 or B27, were identified.
Thus, a total of 450 peptides were produced. ELISPOT assays were used to determine whether ex vivo memory T cell responses could be detected in a cohort of 14 healthy virus carriers (Table 2). PBMC were stimulated with individual peptides and the cells that produced IFN-γ were detected.

[2] = tested on: peptide-sensitized autologous PHA blasts or LCLs; parameters: key to CTL response: Y: Yes; ND: Not detected

Sequence	Responding cells (% CD8) (CD8+ T cells; donor sixteen) [%]	Responding cells (% CD4) (CD4+ T cells; donor sixteen) [%]	ELISPOT Responses (SFC/10^6 PBMC) ([1]; donor sixteen)	ELISPOT Responses (SFC/10^6 PBMC) ([1]; donor delta)	ELISPOT Responses (SFC/10^6 PBMC) ([1]; donor seven)	further results
FRNTNRSLEYKNLPFTIPSM	0.25	0	TC(187) SFC/10^6 PBMC	–	–	–
QPFMRPHERNGFTVLCPKNM	–	–	–	SE(783) SFC/10^6 PBMC	–	Responding cells (% CD8) (CD8+ T cells; donor two): 0%; Responding cells (% CD4) (CD4+ T cells; donor two): 0.05%
TRATKMQVIGDQYVKVYLES	–	–	–	–	346	Responding cells (% CD8) (CD8+ T cells; donor seven): 0.01%; Responding cells (% CD4) (CD4+ T cells; donor seven): 0.09%; ELISPOT Responses (SFC/10^6 PBMC) ([1]; donor alpha): 139 SFC/10^6 PBMC
VKSEVDAVRCRLGTMCNLAL	–	–	–	253 SFC/10^6 PBMC	320	Responding cells (% CD8) (CD8+ T cells; donor delta): 0.06%; Responding cells (% CD4) (CD4+ T cells; donor delta): 0%
DQYVKVYLESFCEDVPSGKL	–	–	–	SE(265) SFC/10^6 PBMC	–	Responding cells (% CD8) (CD8+ T cells; donor delta): 0.23%; Responding cells (% CD4) (CD4+ T cells; donor delta): 0%
CKTMQVNNKGIQIIYTRNHE	0.14	0	TC(154) SFC/10^6 PBMC	–	–	–
SDSESESEEMKCSSGGGASV (human cytomegalovirus IE2 CTL epitope peptide)	0.22	0.01	TC(147) SFC/10^6 PBMC	–	–	–
VLEETSVML (human cytomegalovirus IE1 CTL epitope peptide)	–	–	–	–	3752	ELISPOT Responses (SFC/10^6 PBMC) ([1]; donor fifteen): 245 SFC/10^6 PBMC; CTL activity of polyclonal CTL line ([2]; donor seven, effector:target ratio 10:1): strong CTL activity; CTL response ([2]; predicted epitopes, Table 3): Y
SEPVSEIEEVAPEEEEDGAE (human cytomegalovirus IE1 CTL epitope peptide)	–	–	–	SE(200) SFC/10^6 PBMC	–	Responding cells (% CD8) (CD8+ T cells; donor delta): 0.097%; Responding cells (% CD4) (CD4+ T cells; donor delta): 0%
AHELVCSMENTRATKMQVIG	–	–	–	–	231	Responding cells (% CD8) (CD8+ T cells; donor seven): 0.01%; Responding cells (% CD4) (CD4+ T cells; donor seven): 0.04%; ELISPOT Responses (SFC/10^6 PBMC) ([1]; donor alpha): 169 SFC/10^6 PBMC
HQVLDEAIKACKTMQVNNKG	0.18	0	TC(234) SFC/10^6 PBMC	–	–	–
CLPLMQKFPKQVMVRIFSTN (human cytomegalovirus IE2 CTL epitope peptide)	0.15	0	TC(256) SFC/10^6 PBMC	–	–	–
